Experimental data reported in article PMC9090415, “Discovery of small molecule inhibitors of Plasmodium falciparum apicoplast DNA polymerase” (Journal of Enzyme Inhibition and Medicinal Chemistry, 2022).

Target: P. falciparum apicoplast DNA polymerase (Pf-apPOL) (Plasmodium falciparum, UniProt Q8ILY1)
Assay: Fluorescence-based high-throughput DNA polymerase assay (molecular beacon), primary screen and dose-response
Type: biochemical
Protocol: The HT assay employs a molecular beacon, a stem-loop DNA template with a Cy3 dye and the Black Hole Quencher on the 3′ and 5′ ends of the DNA, respectively. Pf-apPOL concentration is based on a calculated absorptivity of ε280 = 56750 M^−1 cm^−1. Reactions were carried out at 25 °C, using Corning 3575 […] (well-volume, 20 µL). Assays testing for compound inhibition composed of reaction buffer (pH 7.9 in 50 mM potassium acetate, 20 mM Tris-acetate and 10 mM magnesium acetate), Pf-apPOL (20 nM), DNA substrate (20 nM), dNTPs (6 µM), and compound (10 µM in DMSO). The DNA and nucleotide substrates (dNTPs) were at concentrations of 20 nM and 6 µM, respectively, in the assay. Pf-apPOL was incubated in the reaction buffer with dNTPs and the compound of interest (10 µM, in the assay) at 25 °C for 10 min. The DNA substrate was then added and the reaction was allowed to proceed for 90 min at 25 °C.
Each assay plate contained 16 negative controls (no Pf-apPOL, DMSO present) and 16 positive controls (Pf-apPOL present, no DMSO). The fluorescence of each well was determined using a BioTek Synergy Neo fluorescence plate reader using excitation and emission wavelengths of 555 and 570 nm, respectively.
In the above, Min is the average of fluorescence emission of the negative controls (substrate only), Max the average fluorescence emission from the positive controls (enzyme + substrate), and Test the emission from the assays in the presence of compounds (enzyme + compound + substrates). […] […] The IC50 of each compound was determined using Equation (2): (2) IC50= Vmax/(1+ (I/IC50)^n)
In the above, n measures cooperativity, with n > 1 indicating synergistic binding of more than a single molecule of the compound.
To identify apPOL inhibitors we utilised our previously developed high-throughput DNA polymerase assay. The HT assay is based on a molecular beacon DNA template that forms a stem-loop with a Cy3 dye and the Black Hole Quencher on the 3′ and 5′ ends of the DNA, respectively. DNA polymerase activity extends an annealed primer through the stem region, displacing the fluorophore from the quencher, thereby increasing its fluorescence (Figure 1(A)). The assay accurately recapitulates the kinetic behaviour of apPOL, as measured through more conventional low-throughput gel-based assays. The Z′ factor for the assay described here was 0.9 across all plates (data not shown).
Figure 1. High-throughput screening. (A) The fluorescent-based DNA polymerase assay used to screen the compound libraries. The DNA template strand is a hairpin loop with a primer annealed to the loop. The 3’ end of the primer is 11 bases away from the 6 bp duplex. Strand displacement activity of the DNA polymerase separates the Cy3 dye from the Black hole quencher leading to an increase in fluorescent signal. (B) The high-throughput assay workflow. The DNA polymerase is incubated with […] compound for 10 min prior to addition of the hairpin substrate. The reaction is quenched at 3 different time points and the fluorescent signal is measured and % inhibition is determined using the provided equation.

[1] = supplemental file 2, sheet IC50 nontoxic compounds; Pf-apPOL

Chain of P. falciparum apicoplast DNA polymerase (Pf-apPOL) (Q8ILY1 entry or part of it): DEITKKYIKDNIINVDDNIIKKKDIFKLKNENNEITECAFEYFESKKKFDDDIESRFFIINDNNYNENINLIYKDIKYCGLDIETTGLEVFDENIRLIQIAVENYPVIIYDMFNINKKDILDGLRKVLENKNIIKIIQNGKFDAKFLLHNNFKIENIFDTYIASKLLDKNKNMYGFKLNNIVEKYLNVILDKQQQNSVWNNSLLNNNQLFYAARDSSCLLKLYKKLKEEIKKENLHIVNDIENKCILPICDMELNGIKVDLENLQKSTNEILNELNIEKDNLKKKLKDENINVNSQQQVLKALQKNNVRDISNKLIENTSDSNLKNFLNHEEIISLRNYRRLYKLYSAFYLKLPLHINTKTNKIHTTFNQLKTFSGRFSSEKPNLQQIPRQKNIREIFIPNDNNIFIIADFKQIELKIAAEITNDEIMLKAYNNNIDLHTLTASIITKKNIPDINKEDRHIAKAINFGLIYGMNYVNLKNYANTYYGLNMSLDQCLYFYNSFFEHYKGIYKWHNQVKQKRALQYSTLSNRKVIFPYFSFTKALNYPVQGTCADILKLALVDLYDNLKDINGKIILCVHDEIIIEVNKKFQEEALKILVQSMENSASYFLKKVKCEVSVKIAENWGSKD

O=C(Nc1c2c(nn1-c1ccccc1)CSC2)c1ccco1 [KU0055213]
% inhibition Apo pol 10' (DRC-1; concentration 2.5; 10'): 28.0848%
% inhibition Apol 90' (DRC-1; concentration 2.5; 90'): 10.2281%
% inhibition apPOL 180' (DRC-1; concentration 2.5; 180'): -1.233%
% inhibition Apo pol 10' (DRC-1; concentration 5; 10'): 39.8975%
% inhibition Apol 90' (DRC-1; concentration 5; 90'): 17.5159%
% inhibition apPOL 180' (DRC-1; concentration 5; 180'): 1.991%
% inhibition Apo pol 10' (DRC-1; concentration 10; 10'): 66.5971%
% inhibition Apol 90' (DRC-1; concentration 10; 90'): 43.2893%
% inhibition apPOL 180' (DRC-1; concentration 10; 180'): 23.4061%
% inhibition Apo pol 10' (DRC-1; concentration 20; 10'): 82.6519%
% inhibition Apol 90' (DRC-1; concentration 20; 90'): 64.6698%
% inhibition apPOL 180' (DRC-1; concentration 20; 180'): 46.0885%
% inhibition Apo pol 10' (DRC-1; concentration 40; 10'): 90.9141%
% inhibition Apol 90' (DRC-1; concentration 40; 90'): 82.7699%
% inhibition apPOL 180' (DRC-1; concentration 40; 180'): 72.6518%
% inhibition Apo pol 10' (DRC-1; concentration 80 (unit not given); 10'): 92.3383%
% inhibition Apol 90' (DRC-1; concentration 80; 90'): 91.2919%
% inhibition apPOL 180' (DRC-1; concentration 80; 180'): 88.3514%
% inhibition Apo pol 5' (DRC-2; 5'; concentration 2.5): 24%
% inhibition Apo pol 5' (DRC-2; 5'; concentration 5): 37%
% inhibition Apo pol 5' (DRC-2; 5'; concentration 40): 59%
% inhibition Apo pol 5' (DRC-2; 5'; concentration 80): 59%
% inhibition Apol 40' (DRC-2; 40'; concentration 20): 59%
% inhibition Apol 40' (DRC-2; 40'; concentration 40): 70%
% inhibition ApPOL 90' (DRC-2; 90'; concentration 10): 37%
% inhibition ApPOL 90' (DRC-2; 90'; concentration 40): 70%
% inhibition apPOL 180' (DRC-2; 180'; concentration 10): 24%
% inhibition Apo pol 5' (DRC-2; concentration 2.5; 5'): 24%
% inhibition Apol 40' (DRC-2; concentration 2.5; 40'): 21%
% inhibition ApPOL 90' (DRC-2; concentration 2.5; 90'): 17%
% inhibition apPOL 180' (DRC-2; concentration 2.5; 180'): 9%
% inhibition Apo pol 5' (DRC-2; concentration 5; 5'): 37%
% inhibition Apol 40' (DRC-2; concentration 5; 40'): 36%
% inhibition ApPOL 90' (DRC-2; concentration 5; 90'): 32%
% inhibition apPOL 180' (DRC-2; concentration 5; 180'): 20%
% inhibition Apo pol 5' (DRC-2; concentration 10; 5'): 44%
% inhibition Apol 40' (DRC-2; concentration 10; 40'): 42%
% inhibition ApPOL 90' (DRC-2; concentration 10; 90'): 37%
% inhibition apPOL 180' (DRC-2; concentration 10; 180'): 24%
% inhibition Apo pol 5' (DRC-2; concentration 20; 5'): 52%
% inhibition Apol 40' (DRC-2; concentration 20; 40'): 59%
% inhibition ApPOL 90' (DRC-2; concentration 20; 90'): 57%
% inhibition apPOL 180' (DRC-2; concentration 20; 180'): 49%
% inhibition Apo pol 5' (DRC-2; concentration 40; 5'): 59%
% inhibition Apol 40' (DRC-2; concentration 40; 40'): 70%
% inhibition ApPOL 90' (DRC-2; concentration 40; 90'): 70%
% inhibition apPOL 180' (DRC-2; concentration 40; 180'): 65%
% inhibition Apo pol 5' (DRC-2; concentration 80; 5'): 59%
% inhibition Apol 40' (DRC-2; concentration 80; 40'): 75%
% inhibition ApPOL 90' (DRC-2; concentration 80; 90'): 77%
% inhibition apPOL 180' (DRC-2; concentration 80; 180'): 78%
DNA Pol (primary screen value of the 186 hits; unit not given; 90 min, 10 µM): 50
DNA Pol (primary screen value; head prints only 'DNA Pol'; 90 min, 10 µM): 50

COc1ccc(-c2cc3nc4c(c(=O)n3[nH]2)CCN(C(=O)CCc2ccccc2)C4)cc1 [Molecule 17]
IC50 [1]: 7.1 µM

Cc1cccc2c(C(=O)NC(C)C)cc(N(C)C)nc12 [Molecule 47]
IC50 [1]: 15.9 µM
